Laboratory results reported in PubChem BioAssay (NCI).
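Results reflect a 48-hour exposure of cells in 96-well plates to compound at five concentrations. At the GI50, growth is halved. TGI: concentration producing complete growth inhibition.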

Columns and labels:
Experiment in all cases: NCI anticancer screen, dose series, 48 h
SK-MEL-2 melanoma = system: SK-MEL-2 melanoma
OVCAR-4 ovarian = system: OVCAR-4 ovarian
MDA-MB-231 breast = system: MDA-MB-231 breast
UO-31 renal = system: UO-31 renal
CCRF-CEM leukemia = system: CCRF-CEM leukemia
NCI/ADR-RES ovarian = system: NCI/ADR-RES ovarian
SR leukemia = system: SR leukemia
CAKI-1 renal = system: CAKI-1 renal
MDA-MB-435 = system: MDA-MB-435
PC-3 prostate = system: PC-3 prostate
HT29 colon = system: HT29 colon
SNB-75 CNS = system: SNB-75 CNS
DU-145 prostate = system: DU-145 prostate
MALME-3M melanoma = system: MALME-3M melanoma
IGROV1 ovarian = system: IGROV1 ovarian
HOP-92 NSCLC = system: HOP-92 NSCLC
UACC-62 melanoma = system: UACC-62 melanoma
NCI-H23 lung = system: NCI-H23 lung
SN12C renal = system: SN12C renal
HS 578T breast = system: HS 578T breast
MOLT-4 leukemia = system: MOLT-4 leukemia
OVCAR-8 ovarian = system: OVCAR-8 ovarian
HCT-15 colon = system: HCT-15 colon
LOX IMVI melanoma = system: LOX IMVI melanoma
SK-OV-3 ovarian = system: SK-OV-3 ovarian
SF-539 CNS = system: SF-539 CNS
UACC-257 melanoma = system: UACC-257 melanoma
HCT-116 colon = system: HCT-116 colon
T-47D breast = system: T-47D breast
ACHN renal = system: ACHN renal

SMILES: COc1ccc(F)cc1/C=C/C(=O)/C=C(/C=C/c1cc(F)ccc1OC)OB(F)F
- GI50 (SK-MEL-2 melanoma): 2.55 µM
- TGI (SK-MEL-2 melanoma): 7 µM
- GI50 (OVCAR-4 ovarian): 2.33 µM
- TGI (OVCAR-4 ovarian): > 100 µM
- GI50 (MDA-MB-231 breast): 2.17 µM
- TGI (MDA-MB-231 breast): 6.1 µM
- GI50 (UO-31 renal): 1.13 µM
- TGI (UO-31 renal): 2.47 µM
- GI50 (CCRF-CEM leukemia): 0.261 µM
- TGI (CCRF-CEM leukemia): 0.679 µM
- GI50 (NCI/ADR-RES ovarian): 1.66 µM
- TGI (NCI/ADR-RES ovarian): 6.41 µM
- GI50 (SR leukemia): 0.481 µM
- TGI (SR leukemia): 23.4 µM
- GI50 (CAKI-1 renal): 1.14 µM
- TGI (CAKI-1 renal): 2.44 µM
- GI50 (MDA-MB-435): 1.47 µM
- TGI (MDA-MB-435): 5.02 µM
- GI50 (PC-3 prostate): 1.5 µM
- TGI (PC-3 prostate): 3.89 µM
- GI50 (HT29 colon): 1.85 µM
- TGI (HT29 colon): 4.79 µM
- GI50 (SNB-75 CNS): 1.61 µM
- TGI (SNB-75 CNS): 4.86 µM
- GI50 (DU-145 prostate): 2.06 µM
- TGI (DU-145 prostate): > 100 µM
- GI50 (MALME-3M melanoma): 2.05 µM
- TGI (MALME-3M melanoma): 9.12 µM
- GI50 (IGROV1 ovarian): 2.04 µM
- TGI (IGROV1 ovarian): 6.05 µM
- GI50 (HOP-92 NSCLC): 2.04 µM
- TGI (HOP-92 NSCLC): 4.62 µM
- GI50 (UACC-62 melanoma): 1.27 µM
- TGI (UACC-62 melanoma): 2.9 µM
- GI50 (NCI-H23 lung): 1.46 µM
- TGI (NCI-H23 lung): 4.05 µM
- GI50 (SN12C renal): 1.64 µM
- TGI (SN12C renal): 4.83 µM
- GI50 (HS 578T breast): 3.13 µM
- TGI (HS 578T breast): > 100 µM
- GI50 (MOLT-4 leukemia): 0.321 µM
- TGI (MOLT-4 leukemia): 4.75 µM
- GI50 (OVCAR-8 ovarian): 0.513 µM
- TGI (OVCAR-8 ovarian): 5.23 µM
- GI50 (HCT-15 colon): 1.27 µM
- TGI (HCT-15 colon): 2.93 µM
- GI50 (LOX IMVI melanoma): 1.25 µM
- TGI (LOX IMVI melanoma): 2.56 µM
- GI50 (SK-OV-3 ovarian): 3.48 µM
- TGI (SK-OV-3 ovarian): > 100 µM
- GI50 (SF-539 CNS): 2.4 µM
- TGI (SF-539 CNS): 6.68 µM
- GI50 (UACC-257 melanoma): 2.03 µM
- TGI (UACC-257 melanoma): 7.48 µM
- GI50 (HCT-116 colon): 1.39 µM
- TGI (HCT-116 colon): 4.21 µM
- GI50 (T-47D breast): 2.17 µM
- TGI (T-47D breast): 96.6 µM
- GI50 (ACHN renal): 1.02 µM
- TGI (ACHN renal): 2.37 µM
